From patent US10526329B2 (Galapagos NV, priority 2013, dated 2020)

How the values were obtained:
[1] = system: TS-exposed female C57BL/6J mice; assay: Tobacco smoke (TS) model, lungs inflammatory cells recruitment; assay type: in vivo, mouse; details: days 6 to 11, TS-exposed mice
Method: The aim of this experiment is to evaluate the efficacy and potency of a test compound administered p.o., once or twice daily on days 6 to 11, vs reference compounds, on pulmonary inflammation induced by 11 days of TS-exposure in female C57BL/6J mice, by assessing the effect of a test compound on the tobacco smoke induced recruitment of inflammatory cells to the lungs.
The test compounds are formulated in PEG200/0.5% methylcellulose (25/75, v/v) and are given at a dose volume of 10 mL/kg. Roflumilast and Dexamethasone are included as positive […] control, respectively. Each treatment group consists of 10 mice.
A first group of mice is subjected to daily TS-exposure for 5 consecutive days and sacrificed on the day 6, 24 h after the final TS-exposure.
A second group is exposed to air for 5 consecutive days (sham exposure) and sacrificed on the day 6, 24 h after the final air-exposure.
Compound and reference-treated groups are subjected to daily TS-exposure for 11 consecutive days and sacrificed on the day 12, 24 h after the final TS-exposure. Mice are dosed p.o. on days 6 to 11, twice daily, 1 h prior to and 6 h after each TS-exposure, with either vehicle, or the test compound at 3, 5, 10 or 30 mg/kg. Another group is dosed p.o. on days 6 to 11, once daily, 1 h prior to each TS-exposure, with either vehicle, or the test compound at 10 mg/kg.
An additional group is dosed p.o., once daily, on days 6 to 11, with roflumilast at 5 mg/kg, 1 h prior to each TS-exposure. Dexamethasone is dosed p.o., twice daily, on days 6 to 11, at 0.3 mg/kg, 1 h prior to and 6 h after each TS-exposure.
For each mouse, a BAL is performed using 0.4 mL of PBS. The lavage fluid is centrifuged, the supernatant removed and the resulting cell pellet re-suspended for total cell counts and cytospin slide preparation. […]
The lungs are dissected out and the left lobes are removed, snap-frozen and stored at −80° C. […] Cell data are presented as individual data points for each animal and the mean value calculated for each group. […]
Percentage inhibitions for the cell data are calculated using the formula below: […]

hENPP2 = hENPP2 (Homo sapiens (Human), UniProt Q13822); assay: hENPP2 biochemical assay, LPC as substrate
Method: The principle of the assay consists in quantifying the released choline with an enzymatic method using choline oxidase and peroxidase. Choline oxydation by choline oxydase releases betaine and peroxide. The latter is quantified in presence of HRP that converts the peroxide detection agent TOOS and 4-aminoantipyrine into quinoneimine dye. The appearance of quinoneimine dye is measured spectrophotometrically at 555 nm and is proportional to the amount of choline released by ENPP2. Inhibition of ENPP2 will result in a decrease of the signal.
Compound IC50 values are determined in a hENPP2 (UniProtKB/SwissProt Sequence ref Q13822) biochemical assay using LPC as substrate.
The enzyme is diluted in 50 mM Tris-HCl pH 8.5, 500 mM NaCl, 5 mM KCl, 10 mM CaCl2, 0.1% fatty acid free BSA in a total volume of 10 μL. the reaction is started by the addition of 10 μL of 150 μM LPC (palmitoyl 16:0) diluted in the same buffer as described above and the mixture is incubated at 37° C. for 30 min. The reaction is terminated and choline quantified by the addition of a 25 μL of a mixture containing 0.6 U/mL of choline oxidase, 0.6 U/mL of peroxydase, 1.8 mM TOOS, 1.2 mM amino-antipyrine, 20 mM EGTA (stop-developer solution) diluted in the buffer described above. […] is read on the Envision after an incubation of 30 min at room temperature (Excitation 555 nm, excitation light=70%).

SMILES	number of cells recovered in the BALF, in particular macrophage cells, epithelial cells, and neutrophils ([1]; 3 mg/kg twice daily p.o.)	number of cells recovered in the BALF, in particular macrophage cells, epithelial cells, and neutrophils ([1]; 10 mg/kg twice daily p.o.)	IC50 (hENPP2) [nM]
CCc1nc2c(C)cc(N3CCN(CC(=O)N4CC(O)C4)CC3)cn2c1N(C)c1nc(-c2ccc(F)cc2)c(C#N)s1 [Compound 2, 2-((2-ethyl-6-(4-(2-(3-hydroxyazetidin-1-yl)-2-oxoethyl)piperazin-1-yl)-8-methylimidazo[1,2-a]pyridin-3-yl)(methyl)amino)-4-(4-fluorophenyl)thiazole-5-carbonitrile]	significantly inhibited	significantly inhibited	
CCc1nc2c(F)cc(N3CCN(CC(=O)N4CC(O)C4)CC3)cn2c1N(C)c1nc(-c2ccc(F)cc2)c(C#N)s1 [Compound 12, 2-((2-ethyl-8-fluoro-6-(4-(2-(3-hydroxyazetidin-1-yl)-2-oxoethyl)piperazin-1-yl)imidazo[1,2-a]pyridin-3-yl)(methyl)amino)-4-(4-fluorophenyl)thiazole-5-carbonitrile]		significantly inhibited	
CCc1nc2ccc(C3CCN(C4=NCC(CO)O4)CC3)cn2c1N(C)c1nc(-c2ccc(F)cc2)cs1 (stereo not shown) [Compound 222]			500 to 1000
